Earlier results in article PMC11390321 (Cancer chemotherapy and pharmacology, 2024).

Settings: tumor-bearing mice, orally administered; cited from earlier work

For C[C@@H]1COCCN1c1cc(C2([S@](C)(=N)=O)CC2)nc(-c2cc[nH]c3nccc2-3)n1 [ceralasertib], the “bone marrow exposure relative to plasma” value is listed as 4.60 fold.
